Source: article PMC3809102 (Current cancer drug targets, 2010)

What was measured:
Ku70 = Ku70 (Homo sapiens, UniProt P12956); assay: surface plasmon resonance; type: binding
SIRT1 = target: T1, SIRT1 (Homo sapiens, UniProt Q96EB6); assay: cell-free SIRT1 FRET-based screening assay; type: biochemical
T1 sequence (Q96EB6 2-747): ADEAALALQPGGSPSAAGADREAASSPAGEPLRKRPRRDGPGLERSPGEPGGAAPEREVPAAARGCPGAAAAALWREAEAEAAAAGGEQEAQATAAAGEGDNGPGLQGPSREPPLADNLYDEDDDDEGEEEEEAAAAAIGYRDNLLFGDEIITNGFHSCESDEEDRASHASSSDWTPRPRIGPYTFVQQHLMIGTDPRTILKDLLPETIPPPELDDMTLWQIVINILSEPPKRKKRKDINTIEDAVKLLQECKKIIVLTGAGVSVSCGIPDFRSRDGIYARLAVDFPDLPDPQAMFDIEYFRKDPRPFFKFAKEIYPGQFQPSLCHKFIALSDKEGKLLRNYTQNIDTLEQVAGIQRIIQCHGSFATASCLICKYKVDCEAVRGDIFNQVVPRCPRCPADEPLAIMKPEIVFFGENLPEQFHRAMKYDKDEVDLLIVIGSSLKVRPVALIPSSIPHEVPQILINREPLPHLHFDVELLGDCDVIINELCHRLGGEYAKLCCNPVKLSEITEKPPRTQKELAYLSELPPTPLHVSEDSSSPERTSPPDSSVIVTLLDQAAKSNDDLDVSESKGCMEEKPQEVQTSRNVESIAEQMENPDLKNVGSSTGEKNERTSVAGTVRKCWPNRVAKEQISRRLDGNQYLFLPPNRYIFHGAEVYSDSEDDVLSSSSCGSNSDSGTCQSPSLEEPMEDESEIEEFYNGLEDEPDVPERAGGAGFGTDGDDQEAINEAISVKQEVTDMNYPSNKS

Ku70, sequence (P12956 2-609): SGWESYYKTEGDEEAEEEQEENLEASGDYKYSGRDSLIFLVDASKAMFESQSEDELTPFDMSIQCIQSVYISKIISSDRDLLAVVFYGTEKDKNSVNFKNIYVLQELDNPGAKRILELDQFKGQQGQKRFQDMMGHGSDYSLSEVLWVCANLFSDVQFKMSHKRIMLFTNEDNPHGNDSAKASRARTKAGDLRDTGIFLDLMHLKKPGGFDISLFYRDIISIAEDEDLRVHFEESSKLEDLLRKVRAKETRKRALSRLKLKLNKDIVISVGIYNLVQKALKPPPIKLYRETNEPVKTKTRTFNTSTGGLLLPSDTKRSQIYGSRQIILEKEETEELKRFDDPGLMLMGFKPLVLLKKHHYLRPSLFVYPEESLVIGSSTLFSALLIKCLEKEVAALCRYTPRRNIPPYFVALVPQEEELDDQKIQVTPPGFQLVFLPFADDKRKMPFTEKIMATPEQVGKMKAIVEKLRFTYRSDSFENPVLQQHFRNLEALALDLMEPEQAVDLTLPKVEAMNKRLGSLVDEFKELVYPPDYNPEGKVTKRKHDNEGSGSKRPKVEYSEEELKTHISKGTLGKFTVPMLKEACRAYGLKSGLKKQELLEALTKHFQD

Kd (Ku70) [µM]	Molecule	cell-free SIRT1 FRET-based screening assay (Cayman kit), 15 μM (SIRT1)
169	COc1ccc(C2=NC(c3ccc(Cl)cc3)C(c3ccc(Cl)cc3)N2C(=O)N2CCNC(=O)C2)c(OC(C)C)c1 (racemic) [Nutlin-3, (±)-4-[4,5-Bis(4-chlorophenyl)-2-(2-isopropoxy-4-methoxy-phenyl)-4,5-dihydro-imidazole-1-carbonyl]-piperazin-2-one]	MI-219, MI-319 and Nutlin-3 significantly suppressed SIRT1 activity while the inactive analog MI-10 did not
0.17	MI-319	–
